ChEMBL document CHEMBL1201862, “PubChem BioAssay data set” (2004)
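Assay format: 96-well plates, 48-hour exposure. GI50 = concentration required for 50% inhibition of growth.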 Calls of active or inactive are those of the source. Rule as the data show it: active = GI50 up to about 1.1 µM and inactive = higher. Positions of bridges follow the written chain, without caps; N, C: chain ends. Non-standard residues stand in square brackets, D forms with d. Residues, ends and D or L forms follow the SMILES beside them. ξ: configuration not given here. *: point of attachment. X28 = O=C(/C=C/C=C/C=C/C=C/C=C/C(=O)*)NC1=C(O)CCC1=O; Pro(4R-Me) = C[C@H]1CN[C@H](C(=O)O)C1; NMeA = CN[C@@H](C)C(=O)O; ξF = NC(Cc1ccccc1)C(=O)O; ξA = CC(N)C(=O)O

Assays:
Test in all cases: NCI-60 cell line screen, 48 h
MDA-MB-435 = test system: MDA-MB-435
MOLT-4 = test system: MOLT-4
NCI-H460 = test system: NCI-H460
Malme-3M = test system: Malme-3M
NCI-H23 = test system: NCI-H23
SF-268 = test system: SF-268
OVCAR-4 = test system: OVCAR-4
786-0 = test system: 786-0
K562 = test system: K562
TK-10 = test system: TK-10
T47D = test system: T47D
NCI/ADR-RES = test system: NCI/ADR-RES
ACHN = test system: ACHN
Hs-578T = test system: Hs-578T
HCC 2998 = test system: HCC 2998
OVCAR-5 = test system: OVCAR-5
COLO 205 = test system: COLO 205
MDA-MB-231 = test system: MDA-MB-231
IGROV-1 = test system: IGROV-1
SNB-19 = test system: SNB-19

C#CCN(C(=O)C(F)(F)F)C(/C=C\C(=O)OC)(C(=O)OCC)C(=O)OCC
GI50 (MDA-MB-435): > 100 µM (inactive)
GI50 (MOLT-4): > 100 µM (inactive)
GI50 (NCI-H460): > 100 µM (inactive)
GI50 (Malme-3M): > 100 µM (inactive)
GI50 (NCI-H23): > 100 µM (inactive)
GI50 (SF-268): > 100 µM (inactive)
GI50 (OVCAR-4): > 100 µM (inactive)
GI50 (786-0): > 100 µM (inactive)
GI50 (K562): > 100 µM (inactive)
GI50 (TK-10): > 100 µM (inactive)
GI50 (T47D): > 100 µM (inactive)
GI50 (NCI/ADR-RES): > 100 µM (inactive)
GI50 (ACHN): > 100 µM (inactive)
GI50 (Hs-578T): > 100 µM (inactive)
GI50 (HCC 2998): > 100 µM (inactive)
GI50 (OVCAR-5): > 100 µM (inactive)
GI50 (COLO 205): > 10 µM (inactive)
GI50 (MDA-MB-231): > 100 µM (inactive)
GI50 (IGROV-1): > 100 µM (inactive)
GI50 (SNB-19): > 100 µM (inactive)

COC(=O)Cc1cc(O)c2c(c1O)C(=O)c1ccccc1C2=O
GI50 (MDA-MB-435): > 100 µM (inactive)
GI50 (MOLT-4): > 84.5 µM (inactive)
GI50 (NCI-H460): > 100 µM (inactive)
GI50 (Malme-3M): > 74 µM (inactive)
GI50 (NCI-H23): > 56 µM (inactive)
GI50 (SF-268): 51.1 µM (inactive)
GI50 (OVCAR-4): > 100 µM (inactive)
GI50 (786-0): 21.5 µM (inactive)
GI50 (K562): > 100 µM (inactive)
GI50 (TK-10): 39.4 µM (inactive)
GI50 (T47D): > 100 µM (inactive)
GI50 (NCI/ADR-RES): 71.9 µM (inactive)
GI50 (ACHN): > 57.1 µM (inactive)
GI50 (Hs-578T): 34 µM (inactive)
GI50 (HCC 2998): > 100 µM (inactive)
GI50 (OVCAR-5): > 100 µM (inactive)
GI50 (COLO 205): > 100 µM (inactive)
GI50 (MDA-MB-231): 26.5 µM (inactive)
GI50 (IGROV-1): > 83.8 µM (inactive)
GI50 (SNB-19): 38.5 µM (inactive)

CCC1(CC)C(=O)N(C(=O)c2ccccc2)N(C(=O)c2ccc(Cl)cc2)C1=O
GI50 (MDA-MB-435): > 75 µM (inactive)
GI50 (MOLT-4): 17 µM (inactive)
GI50 (NCI-H460): 36.6 µM (inactive)
GI50 (Malme-3M): > 75 µM (inactive)
GI50 (NCI-H23): > 75 µM (inactive)
GI50 (SF-268): > 75 µM (inactive)
GI50 (OVCAR-4): > 75 µM (inactive)
GI50 (786-0): > 75 µM (inactive)
GI50 (K562): 32.9 µM (inactive)
GI50 (TK-10): > 75 µM (inactive)
GI50 (T47D): > 75 µM (inactive)
GI50 (NCI/ADR-RES): > 75 µM (inactive)
GI50 (ACHN): > 75 µM (inactive)
GI50 (Hs-578T): > 75 µM (inactive)
GI50 (HCC 2998): > 75 µM (inactive)
GI50 (OVCAR-5): > 75 µM (inactive)
GI50 (COLO 205): > 75 µM (inactive)
GI50 (MDA-MB-231): > 75 µM (inactive)
GI50 (IGROV-1): > 75 µM (inactive)
GI50 (SNB-19): > 75 µM (inactive)

OC(CCNCc1ccccc1)c1ccc2ccccc2c1 (stereo not drawn)
GI50 (MDA-MB-435): 23 µM (inactive)
GI50 (MOLT-4): 31.1 µM (inactive)
GI50 (NCI-H460): 17.3 µM (inactive)
GI50 (Malme-3M): 22 µM (inactive)
GI50 (NCI-H23): 30 µM (inactive)
GI50 (SF-268): 18.9 µM (inactive)
GI50 (OVCAR-4): 28.4 µM (inactive)
GI50 (786-0): 20.1 µM (inactive)
GI50 (K562): 21.6 µM (inactive)
GI50 (TK-10): 18.3 µM (inactive)
GI50 (T47D): 24 µM (inactive)
GI50 (NCI/ADR-RES): 24.7 µM (inactive)
GI50 (ACHN): 18.3 µM (inactive)
GI50 (Hs-578T): 20.6 µM (inactive)
GI50 (HCC 2998): 36.2 µM (inactive)
GI50 (OVCAR-5): 30.7 µM (inactive)
GI50 (COLO 205): 20.7 µM (inactive)
GI50 (MDA-MB-231): 17.4 µM (inactive)
GI50 (IGROV-1): 16 µM (inactive)
GI50 (SNB-19): 23.7 µM (inactive)

COc1ccc(NC2=NCCO2)c2c1CCCC2
GI50 (MDA-MB-435): 29.6 µM (inactive)
GI50 (MOLT-4): 10.5 µM (inactive)
GI50 (NCI-H460): 34.5 µM (inactive)
GI50 (Malme-3M): 34.1 µM (inactive)
GI50 (NCI-H23): 25.5 µM (inactive)
GI50 (OVCAR-4): 58.7 µM (inactive)
GI50 (786-0): 93.5 µM (inactive)
GI50 (K562): 28.3 µM (inactive)
GI50 (TK-10): 51.3 µM (inactive)
GI50 (T47D): 35.2 µM (inactive)
GI50 (NCI/ADR-RES): 27.6 µM (inactive)
GI50 (ACHN): 29.6 µM (inactive)
GI50 (Hs-578T): 25.9 µM (inactive)
GI50 (HCC 2998): 31.9 µM (inactive)
GI50 (OVCAR-5): 64.9 µM (inactive)
GI50 (COLO 205): 28.2 µM (inactive)
GI50 (MDA-MB-231): 43.8 µM (inactive)
GI50 (IGROV-1): 22.8 µM (inactive)
GI50 (SNB-19): 39.4 µM (inactive)

O=c1oc2c/c(=C\c3ccccn3)c(=O)c3cccc1c3-2
GI50 (MDA-MB-435): > 100 µM (inactive)
GI50 (MOLT-4): 49.3 µM (inactive)
GI50 (NCI-H460): > 100 µM (inactive)
GI50 (Malme-3M): 72.3 µM (inactive)
GI50 (NCI-H23): > 100 µM (inactive)
GI50 (SF-268): 30.8 µM (inactive)
GI50 (OVCAR-4): > 100 µM (inactive)
GI50 (786-0): 14.6 µM (inactive)
GI50 (K562): > 100 µM (inactive)
GI50 (TK-10): 66.8 µM (inactive)
GI50 (T47D): 38.1 µM (inactive)
GI50 (NCI/ADR-RES): 52.7 µM (inactive)
GI50 (ACHN): 44.7 µM (inactive)
GI50 (Hs-578T): > 100 µM (inactive)
GI50 (HCC 2998): > 100 µM (inactive)
GI50 (OVCAR-5): > 100 µM (inactive)
GI50 (COLO 205): > 100 µM (inactive)
GI50 (MDA-MB-231): 31.8 µM (inactive)
GI50 (IGROV-1): 90.8 µM (inactive)
GI50 (SNB-19): 68.2 µM (inactive)

NC1=CN(Cc2ccccc2)C2=N/C(=C\c3ccccc3O)C(=O)N12
GI50 (MDA-MB-435): > 100 µM (inactive)
GI50 (MOLT-4): 96.4 µM (inactive)
GI50 (NCI-H460): > 100 µM (inactive)
GI50 (Malme-3M): > 100 µM (inactive)
GI50 (NCI-H23): > 100 µM (inactive)
GI50 (SF-268): > 100 µM (inactive)
GI50 (OVCAR-4): > 100 µM (inactive)
GI50 (786-0): > 100 µM (inactive)
GI50 (K562): 73.3 µM (inactive)
GI50 (TK-10): > 100 µM (inactive)
GI50 (T47D): 94.4 µM (inactive)
GI50 (NCI/ADR-RES): > 100 µM (inactive)
GI50 (ACHN): > 100 µM (inactive)
GI50 (Hs-578T): > 100 µM (inactive)
GI50 (HCC 2998): > 100 µM (inactive)
GI50 (OVCAR-5): > 100 µM (inactive)
GI50 (COLO 205): > 100 µM (inactive)
GI50 (MDA-MB-231): > 100 µM (inactive)
GI50 (IGROV-1): > 100 µM (inactive)
GI50 (SNB-19): > 100 µM (inactive)

CN(C)[C@@H]1C(O)=C(C(=O)NCNc2nc3[nH]nnc3c(=O)[nH]2)C(=O)[C@@]2(O)C(O)=C3C(=O)c4c(O)cccc4[C@@](C)(O)[C@H]3C[C@@H]12
GI50 (MDA-MB-435): 0.452 µM (active)
GI50 (MOLT-4): 0.288 µM (active)
GI50 (NCI-H460): 24.3 µM (inactive)
GI50 (Malme-3M): 0.773 µM (active)
GI50 (NCI-H23): 35.3 µM (inactive)
GI50 (SF-268): 1.01 µM (active)
GI50 (OVCAR-4): 8.63 µM (inactive)
GI50 (786-0): 0.637 µM (active)
GI50 (K562): 0.402 µM (active)
GI50 (TK-10): 2.3 µM (inactive)
GI50 (T47D): 5.37 µM (inactive)
GI50 (NCI/ADR-RES): 2.37 µM (inactive)
GI50 (ACHN): 31.5 µM (inactive)
GI50 (Hs-578T): 2 µM (inactive)
GI50 (HCC 2998): 64 µM (inactive)
GI50 (OVCAR-5): 33.5 µM (inactive)
GI50 (COLO 205): 23.6 µM (inactive)
GI50 (MDA-MB-231): 0.883 µM (active)
GI50 (IGROV-1): 15.9 µM (inactive)
GI50 (SNB-19): 86.1 µM (inactive)

COc1cc(OC)c(-c2oc3ccccc3c(=O)c2O)c(OC)c1
GI50 (MDA-MB-435): 0.889 µM (active)
GI50 (MOLT-4): 3.52 µM (inactive)
GI50 (NCI-H460): 3.21 µM (inactive)
GI50 (Malme-3M): 2.86 µM (inactive)
GI50 (NCI-H23): 17.3 µM (inactive)
GI50 (SF-268): > 41.3 µM (inactive)
GI50 (OVCAR-4): 0.237 µM (active)
GI50 (786-0): 13.4 µM (inactive)
GI50 (K562): 2.7 µM (inactive)
GI50 (TK-10): > 100 µM (inactive)
GI50 (T47D): 4.16 µM (inactive)
GI50 (NCI/ADR-RES): 1.77 µM (inactive)
GI50 (ACHN): > 29 µM (inactive)
GI50 (Hs-578T): 2.39 µM (inactive)
GI50 (HCC 2998): 0.586 µM (active)
GI50 (OVCAR-5): > 100 µM (inactive)
GI50 (COLO 205): 3.08 µM (inactive)
GI50 (MDA-MB-231): > 20.7 µM (inactive)
GI50 (IGROV-1): 4.37 µM (inactive)
GI50 (SNB-19): > 57.1 µM (inactive)

CC1NC(=O)[C@H](C)N(C)C(=O)[C@@H]2CCCN2C(=O)[C@@H](NC(=O)C(Cc2ccccc2)NC(=O)/C=C/C=C/C=C/C=C/C=C/C(=O)NC2=C(O)CCC2=O)COC(=O)[C@@H]2C[C@@H](C)CN2C1=O (stereo partly drawn) (X28-[ξF]SP[NMeA][ξA][Pro(4R-Me)]; ester 2-C)
GI50 (MDA-MB-435): > 100 µM (inactive)
GI50 (NCI-H460): > 100 µM (inactive)
GI50 (Malme-3M): > 100 µM (inactive)
GI50 (NCI-H23): > 100 µM (inactive)
GI50 (SF-268): > 100 µM (inactive)
GI50 (OVCAR-4): > 100 µM (inactive)
GI50 (786-0): > 100 µM (inactive)
GI50 (K562): > 100 µM (inactive)
GI50 (TK-10): 54.8 µM (inactive)
GI50 (T47D): > 100 µM (inactive)
GI50 (NCI/ADR-RES): > 100 µM (inactive)
GI50 (ACHN): > 100 µM (inactive)
GI50 (Hs-578T): > 100 µM (inactive)
GI50 (HCC 2998): > 100 µM (inactive)
GI50 (OVCAR-5): > 100 µM (inactive)
GI50 (COLO 205): > 100 µM (inactive)
GI50 (MDA-MB-231): > 100 µM (inactive)
GI50 (IGROV-1): > 100 µM (inactive)
GI50 (SNB-19): > 100 µM (inactive)
